# From patent US9139652B2, “Method for increasing M1 macrophages in a patient” (TRANSGENE SA, priority 2011, dated 2015)
# Like-named read-outs stand apart in the source and are kept apart here.
# Key:
# [1] = tested on: MMP-9 production by monocytes cultured with GM-CSF and CSF-1; assay: MMP-9 ELISA in day-6 supernatants of monocytes cultured with GM-CSF and CSF-1; format: cell-based, human; conditions: GW2580, effect in 2 out of 3 donors
# Description: FIG. 6. Monocytes isolated from 3 different blood donors were differentiated for 6 days in the presence of GM-CSF and CSF-1, with or without mAb H27K15, Rituximab or GW2580. MAb H27K15 or Rituximab (0.1, 1 or 10 μg/ml) or equimolar concentrations of F(ab)′2 derived from both mAbs were added to the cultures. MMP-9 was titrated by ELISA (R&D Systems) in day-6 culture supernatants.
# (§1) Buffy coats were provided by the Etablissement Francais du Sang (EFS, Strasbourg). Peripheral blood mononucleated cells (PBMC) were obtained by centrifugation on a ficoll gradient. Monocytes were purified by immunomagnetic cell sorting, using CD14-antibody-coated beads (Miltenyii). Enriched monocyte suspensions were more than 95% pure. […] Cells were detached from the plastic and pools of triplicates were analyzed by IC/FC (immunocytochemistry/flow cytometry) for cell sizes and expression of FcγR and CD86. Cytokines and chemokines were quantified in the culture supernatants by multiplex (Bioplex, Bio-Rad) or by ELISA.
# CD14^+ monocytes from 3 different donors were allowed to differentiate in the presence of both GM-CSF and CSF-1, known to induce macrophage differentiation towards respectively the M1- and M2-types. […] After 6 days of culture, MMP-9 concentrations were measured in the supernatants by ELISA (FIG. 6). […]
# [2] = tested on: CD163-positive M2-type macrophages; assay: Flow cytometry of CD163-positive cells in day-6 macrophages; format: cell-based, human; conditions: 3 donors
# Description: FIG. 7 Cells obtained after 6-day culture with GM-CSF and CSF-1 were harvested and incubated for 20 min at 4° C. with PBS containing human IgG Fc fragments to saturate Fc receptors. Fluorochrome-conjugated mAbs (anti-CD14-PerCP-Cy5.5, anti-CD163-PE, anti-CD206-APC, anti-CD1a-FITC, BD Biosciences) were then incubated with each sample for 20 min at 4° C. FCM analysis was performed using a FACS LSR-II (BD biosciences) with the DIVA software. Data from 3 different blood donors are presented.
# as §1, with “ELISA. […]” for “ELISA.”
# The surface expression of CD163 was analyzed by flow cytometry in day-6 macrophages derived from human monocytes cultured with GM-CSF and CSF-1. […]
# [3] = tested on: IL-12p70 and IL-10 secretion by macrophages; assay: Human macrophage differentiation assay: IL-12p70 and IL-10 in day-6 culture supernatants; format: cell-based; conditions: for IL-12p70 secretion: detection limit 1 pg/ml
# Description: IL-12p70 and IL-10 were titrated in the culture supernatants from day-6 macrophages differentiated in the presence of mAb H27K15 (1 μg/ml), GW2580 (1 μM) or their respective negative controls rituximab or no treatment. Left panel: IL-12p70 and IL-10 levels (pg/ml) in macrophage cultures from 3 blood donors. Right: IL-12p70 (pg/ml)/IL-10 (pg/ml) ratios were calculated for each blood donor and each culture condition. In samples where IL-12p70 was undetectable (below the detection limit of 1 pg/m)l, its level was arbitrarily set at 1 pg/ml for the calculation of IL-12p70/IL-10 ratios.
# (§2) Buffy coats were provided by the Etablissement Francais du Sang (EFS, Strasbourg). Peripheral blood mononucleated cells (PBMC) were obtained by centrifugation on a ficoll gradient. Monocytes were purified by immunomagnetic cell sorting, using CD14-antibody-coated beads (Miltenyii). Enriched monocyte suspensions were more than 95% pure. Monocytes were differentiated for 6 days in 48-well plates (3×10^5 cells/well) in RPMI-Glutamax™ medium supplemented with 10% heat inactivated fetal calf serum and 1% tri-antibiotic mixture (penicillin, streptomycin, neomycin). GM-CSF (10 ng/ml) was added in the cell culture medium from day 0 to day 3. H27K15, other antibodies or internal control GW2580 (LC Labs) were added at day 0. On day 3 post-isolation, monocytes were washed with PBS and further cultivated in medium supplemented with CSF-1 (10 ng/ml) and GM-CSF (2 ng/ml), in the presence or absence of antibodies or GW2580. On day 6, supernatants were collected and stored at −20° C. Cells were detached from the plastic and pools of triplicates were analyzed by IC/FC (immunocytochemistry/flow cytometry) for cell sizes and expression of FcγR and CD86. Cytokines and chemokines were quantified in the culture supernatants by multiplex (Bioplex, Bio-Rad) or by ELISA.
# To study whether mAb H27K15 could affect macrophage differentiation, purified CD14^+ monocytes were cultured for […] in the presence of GM-CSF and CSF-1, known to induce respectively M1- and M2-type macrophages (Akagawa K. S., 2002; Verreck F. A. et al., 2004). Three different doses of mab H27K15 or isotype control rituximab (0.1; 1 or 10 μg/ml) were added to the culture medium at the beginning of the culture and again 3 days later. F(ab′)2 generated from H27K15 or from rituximab were tested in parallel at equivalent molar concentrations. F(ab′)2 generated from mAb 1.2 SM (WO 2009/026303) was tested for comparison with the F(ab′)2 derived from H27K15 or rituximab. The known blocking mAb to human CD115, 2-4A5, or the non-blocking mAb 9-4D2 (Sherr C. J. et al., 1989) were assayed and compared with isotype control rat IgG1. […]
# [4] = tested on: CD64 (FcγRI) expression in human macrophages; assay: Human macrophage differentiation assay: surface CD64 expression by IC/FC; format: cell-based; conditions: day-6 macrophages, GW2580 vs no treatment
# Description: Macrophages obtained following a 6-day culture of monocytes from 3 different blood donors with GM-CSF and CSF-1 were analyzed by IC/FC for surface expression of CD64. Upper panels: CD64 staining in cultures from donor 1 treated with monoclonal antibody H27K15 (left, bold line) or with GW2580 (right, bold line) or their respective negative controls rituximab (left, thin line) or no treatment (right, thin line). Lower panel: Medians of fluorescence intensities in macrophage cultures treated with test compounds at 10, 1 or 0.1 μg/ml* were compared with those in the corresponding negative controls: H27K15 vs rituximab, H27K15-derived F(ab′)2 vs rituximab-derived F(ab′)2, mAbs 2-4A5 or 9-4D2 vs rat IgG1, GW2580 vs no treatment. Percentages of reduction in CD64 expression were calculated as: 100−[100×Median fluorescence intensity with test compound/Median fluorescence intensity with control]. […]
# (§3) Buffy coats were provided by the Etablissement Francais du Sang (EFS, Strasbourg). […] Cells were detached from the plastic and pools of triplicates were analyzed by IC/FC (immunocytochemistry/flow cytometry) for cell sizes and expression of FcγR and CD86. Cytokines and chemokines were quantified in the culture supernatants by multiplex (Bioplex, Bio-Rad) or by ELISA. […]
# [5] = tested on: CD86^bright SSC^low macrophage population; assay: Human macrophage differentiation assay: CD86^bright SSC^low population by IC/FC; format: cell-based; conditions: day-6 macrophages, GW2580 vs no treatment
# Description: Upper panels: Dot plots showing CD86 staining (x-axis) and side scatter (SSC, y-axis) of macrophages from donor 3 differentiated for 6 days in the presence of H27K15 (left) or negative control rituximab (right). A gate was set on the CD86^bright SSC^low cell population induced by H27K15. Lower panel: Percentages of CD86^bright SSC^low cells with the test compounds at 10, 1 or 0.1 μg/ml* were compared with those in the corresponding negative controls: H27K15 vs rituximab, H27K15-derived F(ab′)2 vs rituximab-derived F(ab′)2, GW2580 vs no treatment. Percentages of increase in the CD86^bright SSC^low cell population were calculated as: 100×percentage of CD86^bright SSC^low cells with test compound/percentage of CD86^bright SSC^low cells with control. Shown are the mean percentages of increase in the CD86^bright SSC^low cell population from the 3 blood donors. *except for F(ab′)2: 6.6; 0.6; and 0.06 μg/ml.
# as §3, with “Strasbourg). Peripheral blood mononucleated cells (PBMC) were obtained by centrifugation on a ficoll gradient.” for “Strasbourg).”
# [6] = tested on: MCP-1/CCL2 secretion by macrophages; assay: Human macrophage differentiation assay: MCP-1 in day-6 culture supernatants; format: cell-based; conditions: day-6 macrophage supernatants, GW2580 1 μM vs no treatment
# Description: MCP-1 and IL-6 were titrated in the culture supernatants from day-6 macrophages differentiated in the presence of mAb H27K15 (1 μg/ml), GW2580 (1 μM) or their respective negative controls rituximab or no treatment. Percentages of reduction in MCP-1 (upper panel) or in IL-6 production (lower panel) were calculated for the 3 blood donors as: 100−[100×cytokine concentration with test compound (pg/ml)/cytokine concentration with control (pg/ml)].
# as §2, with “H27K15, other antibodies or internal control GW2580 (LC Labs) were added at day 0. On day 3 post-isolation, monocytes were washed with PBS and further cultivated in medium supplemented with CSF-1 (10 ng/ml) and GM-CSF (2 ng/ml), in the presence or absence of antibodies or GW2580. On day 6, supernatants were collected and stored at −20° C.” left out, “ELISA. […]” for “ELISA.”
# [7] = tested on: differentiating macrophages; assay: Human macrophage differentiation assay: cytotoxicity / cell counts at day 6; format: cell-based
# Excerpt: Cells were counted following a 6-day culture of monocytes with GM-CSF and CSF-1, in the presence or absence of anti-CD115 mAbs or F(ab′)2 or with GW2580. Controls included cultures treated with rituximab or rituximab F(ab′)2, or without any added compound.
# as §2, with “Enriched monocyte suspensions were more than 95% pure.” left out
# Three different doses of mab H27K15 or isotype control rituximab (0.1; 1 or 10 μg/ml) were added to the culture medium at the beginning of the culture and again 3 days later. F(ab′)2 generated from H27K15 or from rituximab were tested in parallel at equivalent molar concentrations.
# Cell viability was analyzed at day 6 by counting 5 microscope fields in each well of the plate (one in the center of the well and four fields at mid-distance between the center and the side of the well).
compound,measurement,setting,value
COc1ccc(COc2ccc(Cc3cnc(N)nc3N)cc2OC)cc1 [GW2580],MMP-9 production,[1],dose-dependent decrease
same,Differentiation of the CD163+ macrophage population (CD163 expression),[2],had the same effect in only ⅔ donors
same,IL-10 production,[3]; GW2580 1 μM,inhibition of IL-10 production
same,IL-12p70/IL-10 ratios,[3]; GW2580 1 μM vs no treatment,increased
same,IL-12p70 secretion,[3]; GW2580 1 μM,not detectable
same,Surface expression of CD64,[4],drastically reduced
same,Induction of CD86^bright SSC^low cell sub-population,[5],had appeared
same,Suppression of MCP-1 production,[6],as efficacious as H27K15
same,Microscopical observation of day-6 cultures (cytotoxicity),"[7]; 1 μM, all blood donors, debris and less density of cells",relative cytotoxicity
same,Macrophage number remaining at day 6 compared with untreated cultures,"[7]; GW2580 1 μM, cell counts in 5 microscope fields (FIG. 1)",approximately 70%
"Rituximab F(ab′)2: F(ab′)2 produced by pepsine digestion of rituximab, negative control",Microscopical observation of day-6 cultures (cytotoxicity),"[7]; compared with untreated cells, independently of the blood donor, monocytes cultured with GM-CSF and CSF-1",no obvious differences
"Rituximab: human IgG1 isotype control, obtained from Roche",IL-12p70 secretion,"[3]; 3 blood donors, mAb 1 μg/ml",did not produce any detectable IL-12p70
same,Microscopical observation of day-6 cultures (cytotoxicity),[7],no obvious differences
